The text below walks through data of ChEMBL document CHEMBL1136781, “Comparison of in vitro P-glycoprotein screening assays: recommendations for their use in drug discovery” (J Med Chem, 2003).

The nature of data set [1]: Partition coefficient (logP). Format: physicochemical. As to conditions: octanol/water; read-out: logP.
For data set [2], the target named is T1, ATP-dependent translocase ABCB1 (Homo sapiens, UniProt P08183). Kind of data set: Inhibition of P-gp was determined using rhodamine-assay in human CaCo-2 cells. Details: concentration or dose not given beside the values. Format: functional, cell-based.
T1 sequence (P08183 whole entry): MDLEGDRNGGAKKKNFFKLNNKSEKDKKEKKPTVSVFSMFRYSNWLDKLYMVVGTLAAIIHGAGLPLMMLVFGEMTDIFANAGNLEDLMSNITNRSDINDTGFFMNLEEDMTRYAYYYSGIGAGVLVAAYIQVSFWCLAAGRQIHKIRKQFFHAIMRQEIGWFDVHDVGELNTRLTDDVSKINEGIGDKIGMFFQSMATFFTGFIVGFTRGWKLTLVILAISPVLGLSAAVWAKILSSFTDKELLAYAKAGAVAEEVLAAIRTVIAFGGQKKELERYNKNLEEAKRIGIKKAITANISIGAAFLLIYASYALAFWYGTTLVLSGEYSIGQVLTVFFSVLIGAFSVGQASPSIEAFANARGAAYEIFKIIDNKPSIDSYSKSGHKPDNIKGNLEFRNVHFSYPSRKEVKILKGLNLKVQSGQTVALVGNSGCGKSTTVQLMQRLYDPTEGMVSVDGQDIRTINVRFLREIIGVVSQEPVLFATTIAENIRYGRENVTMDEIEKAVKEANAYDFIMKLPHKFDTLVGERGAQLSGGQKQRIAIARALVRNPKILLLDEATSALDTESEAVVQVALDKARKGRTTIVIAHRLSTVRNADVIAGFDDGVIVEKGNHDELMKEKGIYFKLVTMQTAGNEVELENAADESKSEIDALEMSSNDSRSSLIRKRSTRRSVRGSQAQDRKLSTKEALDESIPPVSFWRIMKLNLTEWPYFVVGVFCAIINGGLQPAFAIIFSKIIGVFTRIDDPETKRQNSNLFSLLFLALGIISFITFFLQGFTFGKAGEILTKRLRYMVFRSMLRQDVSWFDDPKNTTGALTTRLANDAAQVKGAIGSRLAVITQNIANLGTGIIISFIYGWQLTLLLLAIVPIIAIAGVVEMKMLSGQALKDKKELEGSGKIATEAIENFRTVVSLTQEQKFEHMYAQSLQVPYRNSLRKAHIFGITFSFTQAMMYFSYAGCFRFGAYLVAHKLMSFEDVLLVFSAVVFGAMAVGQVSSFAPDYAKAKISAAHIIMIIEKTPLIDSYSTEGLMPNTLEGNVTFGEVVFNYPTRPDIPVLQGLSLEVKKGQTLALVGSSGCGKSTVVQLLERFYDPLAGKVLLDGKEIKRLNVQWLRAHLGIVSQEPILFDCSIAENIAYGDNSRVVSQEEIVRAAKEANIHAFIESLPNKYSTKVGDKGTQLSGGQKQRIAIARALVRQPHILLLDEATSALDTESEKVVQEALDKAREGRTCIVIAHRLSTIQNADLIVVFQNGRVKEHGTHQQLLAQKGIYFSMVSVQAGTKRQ
For data set [3], the target named is T1, ATP-dependent translocase ABCB1. Kind of data set: Inhibition of P-glycoprotein using ATPase in MDR1 membranes. It counts as functional, cell membranes.
The target in data set [4] is T2, ATP-dependent translocase ABCB1 (Mus musculus, UniProt P21447). Kind of data set: Inhibition of P-glycoprotein, mouse L-mdr1a expressed in LLC-PK1 epithelial cells using calcein-AM polarisation assay. It counts as functional, cell-based.
T2 sequence (P21447 whole entry): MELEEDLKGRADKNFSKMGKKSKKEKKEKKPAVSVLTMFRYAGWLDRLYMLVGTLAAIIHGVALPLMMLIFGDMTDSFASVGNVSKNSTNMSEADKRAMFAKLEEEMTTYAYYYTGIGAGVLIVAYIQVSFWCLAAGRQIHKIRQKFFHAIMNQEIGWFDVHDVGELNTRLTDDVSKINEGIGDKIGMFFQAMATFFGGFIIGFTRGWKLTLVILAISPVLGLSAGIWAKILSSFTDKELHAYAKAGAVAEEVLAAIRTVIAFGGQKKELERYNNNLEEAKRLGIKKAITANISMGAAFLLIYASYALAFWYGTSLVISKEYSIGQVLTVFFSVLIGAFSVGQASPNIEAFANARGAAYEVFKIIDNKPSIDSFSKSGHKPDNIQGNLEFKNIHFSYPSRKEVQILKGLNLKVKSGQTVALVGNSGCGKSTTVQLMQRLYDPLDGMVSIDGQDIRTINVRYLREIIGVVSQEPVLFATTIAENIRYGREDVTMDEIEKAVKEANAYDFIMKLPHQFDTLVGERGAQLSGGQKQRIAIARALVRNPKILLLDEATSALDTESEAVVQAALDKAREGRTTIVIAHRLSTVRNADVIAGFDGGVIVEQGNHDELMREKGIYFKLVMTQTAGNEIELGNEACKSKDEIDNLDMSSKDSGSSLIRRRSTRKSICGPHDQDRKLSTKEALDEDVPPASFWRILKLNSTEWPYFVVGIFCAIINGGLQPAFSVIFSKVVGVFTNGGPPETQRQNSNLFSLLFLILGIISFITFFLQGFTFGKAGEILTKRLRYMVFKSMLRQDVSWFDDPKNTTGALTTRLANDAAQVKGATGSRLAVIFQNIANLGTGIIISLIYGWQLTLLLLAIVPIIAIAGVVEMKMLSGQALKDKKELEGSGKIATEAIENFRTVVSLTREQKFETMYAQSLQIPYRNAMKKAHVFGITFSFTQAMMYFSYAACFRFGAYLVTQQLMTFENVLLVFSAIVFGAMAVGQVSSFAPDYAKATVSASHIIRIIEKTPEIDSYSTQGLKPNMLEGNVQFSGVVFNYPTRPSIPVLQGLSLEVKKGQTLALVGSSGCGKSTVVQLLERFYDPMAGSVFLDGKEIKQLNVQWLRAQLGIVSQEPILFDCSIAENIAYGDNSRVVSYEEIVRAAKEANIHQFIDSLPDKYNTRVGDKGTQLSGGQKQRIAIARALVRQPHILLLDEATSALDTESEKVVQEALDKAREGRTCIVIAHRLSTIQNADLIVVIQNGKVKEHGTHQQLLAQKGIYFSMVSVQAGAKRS
In data set [5] the target is T3, ATP-dependent translocase ABCB1 (Mus musculus, UniProt P06795). The data set is described as follows: Inhibition of P-glycoprotein, mouse L-mdr1b expressed in LLC-PK1 epithelial cells using calcein-AM polarisation assay. It counts as functional, cell-based.
T3 sequence (P06795 whole entry): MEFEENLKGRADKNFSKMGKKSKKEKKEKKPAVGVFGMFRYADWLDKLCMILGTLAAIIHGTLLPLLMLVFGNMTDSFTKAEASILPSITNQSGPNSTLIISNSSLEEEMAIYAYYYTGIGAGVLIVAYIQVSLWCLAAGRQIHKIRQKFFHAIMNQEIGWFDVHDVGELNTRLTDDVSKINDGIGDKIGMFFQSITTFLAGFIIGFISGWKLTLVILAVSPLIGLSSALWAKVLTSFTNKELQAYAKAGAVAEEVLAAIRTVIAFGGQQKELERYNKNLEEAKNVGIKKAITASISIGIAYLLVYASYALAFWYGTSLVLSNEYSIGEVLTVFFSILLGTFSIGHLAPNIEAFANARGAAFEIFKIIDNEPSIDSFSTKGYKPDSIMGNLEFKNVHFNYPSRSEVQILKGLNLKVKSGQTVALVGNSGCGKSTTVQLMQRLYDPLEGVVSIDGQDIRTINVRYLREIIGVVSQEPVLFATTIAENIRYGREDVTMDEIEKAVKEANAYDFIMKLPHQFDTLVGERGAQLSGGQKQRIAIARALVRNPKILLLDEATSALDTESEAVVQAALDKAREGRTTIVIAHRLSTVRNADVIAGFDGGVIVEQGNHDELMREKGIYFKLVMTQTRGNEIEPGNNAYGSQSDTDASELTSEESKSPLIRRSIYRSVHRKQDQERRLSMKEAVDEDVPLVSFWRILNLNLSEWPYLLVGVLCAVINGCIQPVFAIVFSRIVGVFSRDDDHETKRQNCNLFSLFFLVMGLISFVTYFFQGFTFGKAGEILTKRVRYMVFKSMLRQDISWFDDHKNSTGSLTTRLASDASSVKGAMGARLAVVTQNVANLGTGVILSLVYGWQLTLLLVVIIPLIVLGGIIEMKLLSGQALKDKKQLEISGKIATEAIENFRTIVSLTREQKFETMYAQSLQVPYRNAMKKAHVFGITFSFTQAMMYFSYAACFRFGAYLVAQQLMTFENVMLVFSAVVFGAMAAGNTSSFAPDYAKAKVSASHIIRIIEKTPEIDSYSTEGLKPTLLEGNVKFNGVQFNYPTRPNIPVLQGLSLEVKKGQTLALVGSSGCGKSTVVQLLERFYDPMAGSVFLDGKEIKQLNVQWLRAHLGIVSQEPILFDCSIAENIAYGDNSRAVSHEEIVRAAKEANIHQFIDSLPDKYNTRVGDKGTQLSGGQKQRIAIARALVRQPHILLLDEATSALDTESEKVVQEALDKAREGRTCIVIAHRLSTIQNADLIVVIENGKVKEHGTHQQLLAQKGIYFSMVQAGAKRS
Data set [6] concerns the target T2, ATP-dependent translocase ABCB1. Kind of data set: TP_TRANSPORTER: inhibition of Calcein-AM efflux in Mdr1a-expressing LLC-PK1 cells. It counts as functional, cell-based.
Data set [7] has as its target T1, ATP-dependent translocase ABCB1. Kind of data set: TP_TRANSPORTER: inhibition of Rhodamine 123 efflux in Caco-2 cells. It counts as functional, cell-based. Details: concentration or dose not given beside the values; scale not given: the % may be the effect or the level left. (Passage across Caco-2 layers is used to estimate intestinal permeability.)
The target of data set [8] is T3, ATP-dependent translocase ABCB1. The data set is described as follows: TP_TRANSPORTER: inhibition of Calcein-AM efflux in Mdr1b-expressing LLC-PK1 cells. Format: functional, cell-based.

The logP is the decadic logarithm of the partition coefficient of the neutral form, usually between octanol and water. Usually Inhibition stands for how much of the control response was suppressed. Usually IC50 stands for the concentration at which inhibition is half-maximal.

Turning to `CCC(C)n1ncn(-c2ccc(N3CCN(c4ccc(OC[C@H]5CO[C@](Cn6cncn6)(c6ccc(Cl)cc6Cl)O5)cc4)CC3)cc2)c1=O` (some centres undefined) [ITRACONAZOLE], the logP in data set [1] stood at 6.5. Moreover, the Inhibition in data set [2] is 2%. In addition, in data set [3], the Activity was found to be 18 nmol/min/mg. Also, the IC50 in data set [4] was 0.2 µM.

Consider `COC(=O)C1=C(C)NC(C)=C(C(=O)OCCN(C)Cc2ccccc2)C1c1cccc([N+](=O)[O-])c1` (centres undefined) [NICARDIPINE], for which, in data set [1], the logP stood at 5.5. The IC50 in data set [5] was 8 µM; in data set [4], 2.5 µM; in data set [6], 2.5 µM; in data set [8], 8 µM. Also, the Activity in data set [3] is 18 nmol/min/mg; in data set [7] it was 100%.

As to `C[C@H]1O[C@@H](O[C@H]2[C@@H](O)C[C@H](O[C@H]3[C@@H](O)C[C@H](O[C@H]4CC[C@@]5(C)[C@H](CC[C@@H]6[C@@H]5C[C@@H](O)[C@]5(C)[C@@H](C7=CC(=O)OC7)CC[C@]65O)C4)O[C@@H]3C)O[C@@H]2C)C[C@H](O)[C@@H]1O` [DIGOXIN], the IC50 in data set [5], in data set [4], in data set [6] and in data set [8] was more than 50 µM each time.

`CC(C)c1nc(CN(C)C(=O)N[C@H](C(=O)N[C@@H](Cc2ccccc2)C[C@H](O)[C@H](Cc2ccccc2)NC(=O)OCc2cncs2)C(C)C)cs1` [RITONAVIR]: the logP in data set [1] came out at 4.9.

Consider `Clc1ccc(COC(Cn2ccnc2)c2ccc(Cl)cc2Cl)c(Cl)c1` (centres undefined) [MICONAZOLE], for which the logP in data set [1] was 5.8. In data set [2], this molecule had an Inhibition of 22%. Besides, the Activity stood at 1 nmol/min/mg in data set [3] and 22% in data set [7]. Further, the IC50 in data set [4] and in data set [6] was 7.8 µM in each case.

In the case of `CC(C)(C)NC(=O)[C@@H]1C[C@@H]2CCCC[C@@H]2CN1C[C@@H](O)[C@H](Cc1ccccc1)NC(=O)[C@H](CC(N)=O)NC(=O)c1ccc2ccccc2n1`, the logP in data set [1] turned out to be 4.7. Moreover, the IC50 in data set [5] and in data set [8] was more than 50 µM each time. Besides, the Inhibition in data set [2] turned out to be 43%. In addition, the Activity worked out at 30 nmol/min/mg in data set [3] and 43% in data set [7].

Turning to `CN/C(=N/CCSCc1nc[nH]c1C)NC#N` [CIMETIDINE], the IC50 in data set [5] and in data set [8] was more than 50 µM each time. In data set [2], this molecule gave an Inhibition of 4%. Besides, the Activity in data set [3] was 2.8 nmol/min/mg; in data set [7] it was 4%.

Regarding `C=C[C@H]1C[N@@]2CC[C@H]1C[C@@H]2[C@@H](O)c1ccnc2ccc(OC)cc12` [QUINIDINE], the log partition coefficient (logP) in data set [1] turned out to be 2.8. Moreover, the IC50 is 10 µM in data set [5], 13 µM in data set [4], 13 µM in data set [6] and 10 µM in data set [8]. The Activity in data set [3] came to 20 nmol/min/mg.

On to `CCC(C)n1ncn(-c2ccc(N3CCN(c4ccc(OCC5COC(Cn6cncn6)(c6ccc(Cl)cc6Cl)O5)cc4)CC3)cc2)c1=O` (centres undefined) [ITRACONAZOLE], for which, in data set [6], the IC50 is 0.2 µM. Further, the Activity in data set [7] turned out to be 2%.

Take `CC(C)(C)c1ccc(C(O)CCCN2CCC(C(O)(c3ccccc3)c3ccccc3)CC2)cc1` (centres undefined) [TERFENADINE]: in data set [1], the logP came to 5.7. For the same molecule, the IC50 in data set [5] and in data set [8] was 2 µM in each case. In data set [3], this molecule yielded an Activity of 0.4 nmol/min/mg.

For `O=c1[nH]c2ccccc2n1C1CCN(CCCC(c2ccc(F)cc2)c2ccc(F)cc2)CC1` [PIMOZIDE], the IC50 in data set [5] and in data set [8] was more than 50 µM throughout. In data set [2], this molecule registered an Inhibition of 37%. The figures for the Activity in data set [3] and in data set [7] were 11 nmol/min/mg and 37%, respectively.

For `COc1cc([C@@H]2c3cc4c(cc3[C@@H](O[C@@H]3O[C@@H]5CO[C@@H](C)O[C@H]5[C@H](O)[C@H]3O)[C@H]3COC(=O)[C@H]23)OCO4)cc(OC)c1O` [ETOPOSIDE], in data set [1], the logP amounted to 0.6. Moreover, the IC50 in data set [5] and in data set [8] was more than 50 µM in each case. This molecule also displayed an Activity in data set [3] of -0.2 nmol/min/mg.
